The values that follow come from US20050049294A1, “Methods of using [3.2.0] heterocyclic compounds and analogs thereof” (priority 2003, published 2005).

In assay [1] the test system is LeTx-induced cytotoxicity of RAW264.7 cells. The settings on record: read-out: EC50 concentrations in the LeTx assay; cited from earlier work.
Assay [2] relates to Jurkat cells. Briefly: Cytotoxicity against Jurkat cells. Format: cell-based, human. The settings on record: Table 5, Jurkat Cells.
Assay [3] deals with HL-60 cells. Kind of assay: Cell growth inhibition (resazurin, 48 hours), HL-60. An excerpt:
(§1) The DNA binding agent Mitoxantrone was included as a control, as HL-60/MX2 cells are reported to be resistant to this chemotherapeutic agent (Harker W. G. et al. 1989).

The subject of assay [4] is HL-60/MX2 cells. Briefly: cells.
Description: as §1

The target of assay [5] is T1, chymotrypsin-like activity of rabbit muscle 20S proteasomes (Oryctolagus cuniculus, UniProt G1T4Q9).
T1 sequence (G1T4Q9 1-263): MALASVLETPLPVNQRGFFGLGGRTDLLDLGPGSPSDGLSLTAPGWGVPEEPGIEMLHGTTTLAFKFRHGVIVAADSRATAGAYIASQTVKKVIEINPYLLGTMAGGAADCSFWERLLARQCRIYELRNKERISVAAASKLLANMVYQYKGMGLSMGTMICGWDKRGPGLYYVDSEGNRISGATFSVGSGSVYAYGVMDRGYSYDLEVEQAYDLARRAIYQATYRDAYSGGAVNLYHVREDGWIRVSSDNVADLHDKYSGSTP
Briefly: Inhibition of chymotrypsin-like activity of purified rabbit muscle 20S proteasome (suc-LLVY-AMC). It is filed as biochemical. The settings on record: Example 21. On the procedure: This peptide substrate is specific for the chymotrypsin-like enzyme activity of the proteasome.
Omuralide was prepared as a 10 mM stock in DMSO and stored in 5 μL aliquots at −80° C. […] The assay measures the hydrolysis of Suc-LLVY-AMC into Suc-LLVY and AMC. The released coumarin (AMC) was measured fluorometrically by using λex=390 nm and λem=460 nm. The assays were performed in a microtiter plate (Corning 3904), and followed kinetically with measurements every five minutes. The instrument used was a Thermo Lab Systems Fluoroskan, with the incubation chamber set to 37° C. The assays were performed according to the manufacturer's protocol, with the following changes. The proteasome was activated as described with SDS, and held on ice prior to the assay. […] Ten microliters of each dose were added in triplicate to the assay plate, and 190 μL of the activated proteasome was added and mixed. The samples were pre-incubated in the Fluoroskan for 5 minutes at 37° C. Substrate was added and the kinetics of AMC were followed for one hour.

Assay [6] has as its system LeTx-induced cytotoxicity of RAW264.7 cells. The settings on record: 1 μM.

The structures appear in SMILES notation. Where two headings read alike, the source gives them in different places. Peptide text beside a SMILES is read from it. * marks the point of attachment. Cbz = O=C(OCc1ccccc1)*

Regarding `CC(=O)N[C@@H](CSC(=O)[C@]1([C@@H](O)C(C)C)NC(=O)[C@H](C)[C@@H]1O)C(=O)O` [Lactacystin], in assay [1], the EC50 is 3000 nM.
Take `CC(C)C[C@@H](C=O)NC(=O)[C@H](CC(C)C)NC(=O)[C@H](CC(C)C)NC(=O)OCc1ccccc1` [MG132] (Cbz-Leu-Leu-Leu-aldehyde): the EC50 in assay [1] was 3000 nM.
Turning to `O=C1c2c(O)ccc(O)c2C(=O)c2c(NCCNCCO)ccc(NCCNCCO)c21` [Mitoxantrone, reference compound], the EC50 in assay [2] (Homo sapiens, read-out: EC50) was determined as 50 nM; in assay [3] (Homo sapiens, HL-60, read-out: EC50 (nM) HL-60, Table 17), 42 nM; in assay [3] (read-out: EC50 (nM) HL-60, Table 17), 40 nM; in assay [4] (Homo sapiens, HL60/MX2, read-out: EC50 (nM) HL-60/MX2, Table 17), 1340 nM. Also, the “% max cell kill” value in assay [2] was determined as 99%. Besides, the Fold change in assay [4] (Table 17, ratio of EC50 values (HL-60/MX2:HL-60)) is listed as 30.6 fold.
`CC(C)[C@H](O)[C@@]12NC(=O)[C@H](C)[C@@H]1OC2=O` [Omuralide, reference compound]: the EC50 in assay [5] (Calbiochem 20S Proteasome Kit, read-out: average EC50 in the two assays, chymotrypsin-like activity) is 52 nM; in assay [5] (first experiment, read-out: EC50, average value in the 20S proteasome assay (FIG. 27)), 49 nM. For the same molecule, the “viability, compound + LeTx” value in assay [6] is on record as 37%.
